Read-outs that look alike come from different tables or passages of the source.
System: capacitative calcium entry (CCE) in IP3 receptor-deficient strain of cell line DT40
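Further: intracellular Ca2+ read as 340/380 nm excitation ratio at 510 nm emission, stores emptied by thapsigargin without external Ca2+, then 2 mM CaCl2 added, inhibition of the ensuing Ca2+ rise.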

Procedure: (Assay of Capacitative Calcium Entry Inhibition)
Its 510 nm fluorescence obtained at 340 nm and 380 nm is measured and the fluorescence ratio F340/380 is measured to determine the intracellular calcium ion concentration. Next, thapsigargin (an endoplasmic reticulum calcium ion pump inhibitor) is allowed to act without calcium ion in an extracellular fluid to deplete an intracellular calcium store. Calcium chloride at a final concentration of 2 mM is added to the extracellular fluid. The IC50 value is calculated by estimating the effect of each compound on the degree of increase in the intracellular calcium concentration at the time of the addition.

Bis(4,4′-(phenyl-ornithineboryl)phenyl) ether [Example 117]
inhibition (1 µM): 80% | inhibition (3 µM): 100%
